The record followed here is ChEMBL document CHEMBL2417394, “Exquisite selectivity for human toll-like receptor 8 in substituted furo[2,3-c]quinolines” (J Med Chem, 2013).

The source made the active and inactive calls. The rule behind the calls is not given here.

Assay type in all cases: cell-based
The target of test [1] is Toll-like receptor 3 (Homo sapiens) (UniProt O15455). Description: Modulation of human TLR3 expressed in HEK293 cells co-transfected with MD2 and sAP assessed as induction of NF-kappaB activity by reporter gene assay. For orientation: Reporter assays use an easily measured gene product as a stand-in for the process of interest.
The target of test [2] is Toll-like receptor 4 (Homo sapiens) (UniProt O00206). Put plainly: Modulation of human TLR4 expressed in HEK293 cells co-transfected with MD2 and sAP assessed as induction of NF-kappaB activity by reporter gene assay.
Test [3] has as its target T1, Toll-like receptor 8 (Homo sapiens) (UniProt Q9NR97).
T1 sequence (whole entry): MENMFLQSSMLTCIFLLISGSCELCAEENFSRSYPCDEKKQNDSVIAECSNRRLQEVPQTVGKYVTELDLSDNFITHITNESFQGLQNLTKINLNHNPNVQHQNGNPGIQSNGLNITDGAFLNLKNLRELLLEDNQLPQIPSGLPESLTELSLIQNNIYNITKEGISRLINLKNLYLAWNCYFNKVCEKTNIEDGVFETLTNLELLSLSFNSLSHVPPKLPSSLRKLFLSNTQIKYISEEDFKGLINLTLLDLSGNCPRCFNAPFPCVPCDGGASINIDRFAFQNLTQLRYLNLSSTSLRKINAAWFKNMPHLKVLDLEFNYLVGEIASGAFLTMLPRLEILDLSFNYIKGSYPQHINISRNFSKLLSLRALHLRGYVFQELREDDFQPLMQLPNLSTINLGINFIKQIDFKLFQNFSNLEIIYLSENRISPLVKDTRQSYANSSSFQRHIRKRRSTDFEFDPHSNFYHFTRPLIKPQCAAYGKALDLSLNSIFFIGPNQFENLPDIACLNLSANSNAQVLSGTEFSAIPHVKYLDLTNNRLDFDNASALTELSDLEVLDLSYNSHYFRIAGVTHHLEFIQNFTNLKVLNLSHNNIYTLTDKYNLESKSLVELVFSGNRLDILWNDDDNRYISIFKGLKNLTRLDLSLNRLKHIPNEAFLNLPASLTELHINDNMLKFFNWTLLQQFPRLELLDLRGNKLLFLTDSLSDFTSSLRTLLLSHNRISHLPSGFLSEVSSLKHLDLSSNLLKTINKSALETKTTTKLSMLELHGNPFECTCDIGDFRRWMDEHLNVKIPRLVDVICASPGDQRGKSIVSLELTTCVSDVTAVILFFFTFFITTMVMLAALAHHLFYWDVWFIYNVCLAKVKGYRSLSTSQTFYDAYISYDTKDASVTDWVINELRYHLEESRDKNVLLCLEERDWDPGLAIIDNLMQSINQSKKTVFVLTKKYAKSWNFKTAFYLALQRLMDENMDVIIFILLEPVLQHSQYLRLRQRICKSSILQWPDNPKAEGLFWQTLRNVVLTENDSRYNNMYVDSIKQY
Description: Modulation of human TLR8 expressed in HEK293 cells co-transfected with MD2 and sAP assessed as induction of NF-kappaB activity by reporter gene assay.

Test [4] deals with T2, Toll-like receptor 7 (Homo sapiens) (UniProt Q9NYK1).
T2 sequence (whole entry): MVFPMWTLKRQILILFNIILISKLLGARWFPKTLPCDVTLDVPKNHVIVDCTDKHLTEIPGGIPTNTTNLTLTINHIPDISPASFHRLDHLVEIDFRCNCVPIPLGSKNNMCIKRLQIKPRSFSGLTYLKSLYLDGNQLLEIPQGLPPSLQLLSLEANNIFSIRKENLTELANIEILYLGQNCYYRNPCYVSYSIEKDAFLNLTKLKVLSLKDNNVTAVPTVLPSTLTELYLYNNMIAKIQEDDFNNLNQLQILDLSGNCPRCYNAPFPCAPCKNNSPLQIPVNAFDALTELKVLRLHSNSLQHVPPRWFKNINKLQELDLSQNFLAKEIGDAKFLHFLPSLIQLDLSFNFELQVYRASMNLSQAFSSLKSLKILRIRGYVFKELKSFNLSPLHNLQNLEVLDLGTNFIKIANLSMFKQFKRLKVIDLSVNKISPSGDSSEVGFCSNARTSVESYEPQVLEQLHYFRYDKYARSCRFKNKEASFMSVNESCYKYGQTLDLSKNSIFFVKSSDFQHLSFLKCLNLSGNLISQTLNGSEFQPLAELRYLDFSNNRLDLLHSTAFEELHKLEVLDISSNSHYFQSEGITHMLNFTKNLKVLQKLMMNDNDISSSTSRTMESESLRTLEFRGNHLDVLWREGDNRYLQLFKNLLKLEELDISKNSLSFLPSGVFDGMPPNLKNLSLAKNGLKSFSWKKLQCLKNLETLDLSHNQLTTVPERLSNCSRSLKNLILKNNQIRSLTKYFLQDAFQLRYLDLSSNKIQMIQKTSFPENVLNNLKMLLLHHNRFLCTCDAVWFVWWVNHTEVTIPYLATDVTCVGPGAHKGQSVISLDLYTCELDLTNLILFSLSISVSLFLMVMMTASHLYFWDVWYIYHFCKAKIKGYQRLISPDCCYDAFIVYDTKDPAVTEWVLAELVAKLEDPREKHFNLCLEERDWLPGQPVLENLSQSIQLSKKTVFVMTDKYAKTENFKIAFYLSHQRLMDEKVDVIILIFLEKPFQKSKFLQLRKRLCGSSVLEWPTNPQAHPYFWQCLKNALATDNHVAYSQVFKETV
Description: Modulation of human TLR7 expressed in HEK293 cells co-transfected with MD2 and sAP assessed as induction of NF-kappaB activity by reporter gene assay.

The target of test [5] is Toll-like receptor 5 (Homo sapiens) (UniProt O60602). Put plainly: Modulation of human TLR5 expressed in HEK293 cells co-transfected with MD2 and sAP assessed as induction of NF-kappaB activity by reporter gene assay.
The target of test [6] is Toll-like receptor 2 (Homo sapiens) (UniProt O60603). Description: Modulation of human TLR2 expressed in HEK293 cells co-transfected with MD2 and sAP assessed as induction of NF-kappaB activity by reporter gene assay.
Toll-like receptor 2 (Homo sapiens), sequence (O60603 whole entry): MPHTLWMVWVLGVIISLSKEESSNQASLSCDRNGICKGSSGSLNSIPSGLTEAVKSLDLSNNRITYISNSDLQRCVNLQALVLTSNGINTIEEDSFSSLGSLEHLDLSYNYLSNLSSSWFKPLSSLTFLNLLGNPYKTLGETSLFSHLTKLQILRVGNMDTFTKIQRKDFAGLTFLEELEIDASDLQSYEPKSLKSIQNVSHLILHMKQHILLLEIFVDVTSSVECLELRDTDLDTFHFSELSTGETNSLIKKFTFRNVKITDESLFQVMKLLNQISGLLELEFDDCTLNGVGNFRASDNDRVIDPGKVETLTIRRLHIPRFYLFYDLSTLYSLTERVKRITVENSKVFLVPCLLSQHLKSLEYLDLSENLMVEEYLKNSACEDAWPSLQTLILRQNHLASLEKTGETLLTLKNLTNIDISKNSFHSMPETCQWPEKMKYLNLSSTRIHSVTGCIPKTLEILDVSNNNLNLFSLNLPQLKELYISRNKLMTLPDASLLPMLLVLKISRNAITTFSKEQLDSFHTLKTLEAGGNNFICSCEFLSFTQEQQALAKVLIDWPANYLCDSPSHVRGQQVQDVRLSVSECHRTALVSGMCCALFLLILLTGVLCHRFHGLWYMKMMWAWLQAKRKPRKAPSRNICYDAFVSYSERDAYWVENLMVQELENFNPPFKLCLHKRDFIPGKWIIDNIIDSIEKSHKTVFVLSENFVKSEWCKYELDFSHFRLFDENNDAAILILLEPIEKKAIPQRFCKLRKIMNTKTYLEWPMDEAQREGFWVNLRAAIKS

Toll-like receptor 3 (Homo sapiens), sequence (O15455 whole entry): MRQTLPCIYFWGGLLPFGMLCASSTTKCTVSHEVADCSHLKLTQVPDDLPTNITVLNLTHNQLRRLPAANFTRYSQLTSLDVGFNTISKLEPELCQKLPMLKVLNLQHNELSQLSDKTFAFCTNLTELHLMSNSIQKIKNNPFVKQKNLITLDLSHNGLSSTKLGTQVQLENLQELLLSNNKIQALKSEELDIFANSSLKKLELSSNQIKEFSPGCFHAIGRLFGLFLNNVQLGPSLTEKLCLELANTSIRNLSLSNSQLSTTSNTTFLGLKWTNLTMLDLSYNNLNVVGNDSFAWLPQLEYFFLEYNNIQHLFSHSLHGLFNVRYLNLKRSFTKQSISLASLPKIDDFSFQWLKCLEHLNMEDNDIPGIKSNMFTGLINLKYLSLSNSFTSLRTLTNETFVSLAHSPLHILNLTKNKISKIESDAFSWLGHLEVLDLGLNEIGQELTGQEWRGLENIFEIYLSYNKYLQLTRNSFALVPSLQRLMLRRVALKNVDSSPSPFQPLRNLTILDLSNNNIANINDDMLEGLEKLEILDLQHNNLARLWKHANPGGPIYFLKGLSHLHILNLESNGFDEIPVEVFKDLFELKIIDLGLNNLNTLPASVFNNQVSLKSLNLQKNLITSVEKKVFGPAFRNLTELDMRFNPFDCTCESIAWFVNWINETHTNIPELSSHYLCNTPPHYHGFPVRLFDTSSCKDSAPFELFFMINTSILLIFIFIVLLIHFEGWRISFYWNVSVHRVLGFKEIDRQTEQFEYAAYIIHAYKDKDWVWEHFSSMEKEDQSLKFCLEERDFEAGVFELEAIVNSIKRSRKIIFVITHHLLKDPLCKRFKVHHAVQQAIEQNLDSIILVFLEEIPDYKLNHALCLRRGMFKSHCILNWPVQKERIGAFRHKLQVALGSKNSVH
Toll-like receptor 5 (Homo sapiens), sequence (O60602 whole entry): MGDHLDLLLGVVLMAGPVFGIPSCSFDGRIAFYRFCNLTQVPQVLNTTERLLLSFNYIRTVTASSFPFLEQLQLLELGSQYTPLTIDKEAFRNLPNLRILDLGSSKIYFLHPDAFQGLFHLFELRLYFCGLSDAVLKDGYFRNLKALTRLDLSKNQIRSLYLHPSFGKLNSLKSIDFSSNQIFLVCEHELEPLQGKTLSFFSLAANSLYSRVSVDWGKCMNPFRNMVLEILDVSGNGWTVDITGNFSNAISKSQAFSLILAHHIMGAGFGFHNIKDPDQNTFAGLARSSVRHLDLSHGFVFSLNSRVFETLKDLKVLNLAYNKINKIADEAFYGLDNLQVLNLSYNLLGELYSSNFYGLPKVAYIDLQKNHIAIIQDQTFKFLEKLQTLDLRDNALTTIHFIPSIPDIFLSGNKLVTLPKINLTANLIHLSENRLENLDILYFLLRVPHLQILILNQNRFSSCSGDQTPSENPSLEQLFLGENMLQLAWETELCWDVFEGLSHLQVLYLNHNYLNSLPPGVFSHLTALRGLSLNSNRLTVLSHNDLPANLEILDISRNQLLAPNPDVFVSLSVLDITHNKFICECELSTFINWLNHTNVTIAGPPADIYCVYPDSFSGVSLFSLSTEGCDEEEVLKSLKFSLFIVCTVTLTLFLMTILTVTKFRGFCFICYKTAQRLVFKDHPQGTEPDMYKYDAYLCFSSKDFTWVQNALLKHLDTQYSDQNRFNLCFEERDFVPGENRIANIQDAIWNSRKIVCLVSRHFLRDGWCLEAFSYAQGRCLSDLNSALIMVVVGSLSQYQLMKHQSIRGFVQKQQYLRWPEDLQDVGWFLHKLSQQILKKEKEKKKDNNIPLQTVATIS
Toll-like receptor 4 (Homo sapiens), sequence (O00206 whole entry): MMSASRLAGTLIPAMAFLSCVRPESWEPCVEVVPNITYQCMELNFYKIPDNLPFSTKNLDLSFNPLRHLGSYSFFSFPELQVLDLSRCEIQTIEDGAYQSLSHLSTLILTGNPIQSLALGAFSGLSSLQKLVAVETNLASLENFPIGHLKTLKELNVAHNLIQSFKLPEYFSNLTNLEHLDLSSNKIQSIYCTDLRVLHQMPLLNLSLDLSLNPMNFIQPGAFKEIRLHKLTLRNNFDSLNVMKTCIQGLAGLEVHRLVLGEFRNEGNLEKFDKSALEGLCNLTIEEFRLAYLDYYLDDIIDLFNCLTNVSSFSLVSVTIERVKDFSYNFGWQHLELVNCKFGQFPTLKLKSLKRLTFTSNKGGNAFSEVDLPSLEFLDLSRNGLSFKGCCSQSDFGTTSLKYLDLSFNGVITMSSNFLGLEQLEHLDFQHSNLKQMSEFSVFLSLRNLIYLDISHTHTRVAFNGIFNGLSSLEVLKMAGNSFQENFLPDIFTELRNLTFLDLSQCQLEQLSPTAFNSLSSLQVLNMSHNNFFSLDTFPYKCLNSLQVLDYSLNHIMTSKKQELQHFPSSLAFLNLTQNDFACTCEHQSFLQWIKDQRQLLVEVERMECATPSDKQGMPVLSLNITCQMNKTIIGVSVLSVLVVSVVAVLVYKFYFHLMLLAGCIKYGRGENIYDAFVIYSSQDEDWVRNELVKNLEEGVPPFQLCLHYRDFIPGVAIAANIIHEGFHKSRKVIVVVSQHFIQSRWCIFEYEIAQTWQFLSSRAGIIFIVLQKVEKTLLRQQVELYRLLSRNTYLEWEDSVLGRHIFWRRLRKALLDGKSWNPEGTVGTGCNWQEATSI

As to `CCCCc1cc2c(nc(N)c3ccccc32)o1`, the outcome in test [1], in test [2], in test [3], in test [4], in test [5] and in test [6] was inactive.
`NCCc1cc2c(o1)c(N)nc1ccccc12`: the result in test [1], in test [2], in test [3], in test [4], in test [5] and in test [6] was Active.
